Literature values, collected in patent US20120294924A1, “Peptide-Lipid Conjugates And Uses Thereof” (priority 2011, published 2012).
No end group written: not given here.

Details: qualitative statement, Li et al., Biochimica et Biophysica Acta 1768:411-418, 2007

- binding to LPS: bind to LPS
Sequence: HAEHKVKIGVEQKYGQFPQGTEVTYTCSGNYFLM [Sushi-3, 34mer peptide from a Sushi domain of horseshoe crab Factor C]
